Test results taken from patent US20240016811A1, “CANCER THERAPY USING A COMBINATION OF CDK7 INHIBITOR WITH AN ANTI-MICROTUBULE AGENT” (Aurigene Oncology Limited, priority 2020, published 2024).
Where “and” joins values, the source holds several entries; their conditions need not be identical. Equal values may be shown once.

System: DU 145 cells
Assay: Proliferation of DU 145 cells after 3-day treatment, measured using CTG reagent; single agents and combination, synergy analysed with CompuSyn
Format: cell-based
Conditions: for inhibition of proliferation in DU145 cells: single agents, conclusion in words
Description: The effect of 3-day compound treatment on cell proliferation was measured using CTG reagent.

Structure (SMILES): CC(=O)O[C@@]12CO[C@@H]1C[C@H](O)[C@@]1(C)C(=O)[C@H](O)C3=C(C)[C@@H](OC(=O)[C@H](O)[C@@H](NC(=O)OC(C)(C)C)c4ccccc4)C[C@@](O)([C@@H](OC(=O)c4ccccc4)[C@H]21)C3(C)C [Docetaxel, docetaxel]
- % inhibition in proliferation (Docetaxel 0.0002 nM, Day-3, replicate columns): 1.6% and −0.5% and 3.2%
- % inhibition in proliferation (Docetaxel 0.0007 nM, Day-3, replicate columns): −3.9% and −5.1% and 2.9%
- % inhibition in proliferation (Docetaxel 0.0021 nM, Day-3, replicate columns): −2.5% and 1.2% and 3.4%
- % inhibition in proliferation (Docetaxel 0.0188 nM, Day-3, replicate columns): 0.8% and 0.9% and 10.0%
- % inhibition in proliferation (Docetaxel 0.0565 nM, Day-3, replicate columns): 8.8% and 16.0% and 24.0%
- % inhibition in proliferation (Docetaxel 0.1694 nM, Day-3, replicate columns): 8.3% and 2.2% and 4.1%
- % inhibition in proliferation (Docetaxel 0.5081 nM, Day-3, replicate columns): 15.5% and 18.3%
- % inhibition in proliferation (Docetaxel 1.5242 nM, Day-3, replicate columns): 57.5% and 59.4%
- % inhibition in proliferation (Docetaxel 4.5725 nM, Day-3, replicate columns): 98.6% and 99.2%
- % inhibition in proliferation (Docetaxel 13.7174 nM, Day-3, replicate columns): 117.2% and 114.3%
- % inhibition in proliferation (Docetaxel 41.1523 nM, Day-3, replicate columns): 123.1% and 120.5%
- % inhibition in proliferation (Docetaxel 123.4568 nM, Day-3, replicate columns): 126.0% and 122.3%
- % inhibition in proliferation (Docetaxel 370.3704 nM, Day-3, replicate columns): 125.0% and 123.2%
- % inhibition in proliferation (Docetaxel 1111.1111 nM, Day-3, replicate columns): 125.2% and 121.8%
- % inhibition in proliferation (Docetaxel 3333.3333 nM, Day-3, replicate columns): 124.1% and 121.7%
- % inhibition in proliferation (Docetaxel 10000.00 nM, Day-3, replicate columns): 118.3% and 117.0%
- inhibition at 200 fM (Homo sapiens, DU-145, 72 h, Docetaxel 0.0002 nM alone (Compound-44A 0), checkerboard, 3 days): 1.42%
- inhibition at 700 fM (Homo sapiens, DU-145, 72 h, Docetaxel 0.0007 nM alone (Compound-44A 0), checkerboard, 3 days): 0%
- inhibition at 2.1 pM (Homo sapiens, DU-145, 72 h, Docetaxel 0.0021 nM alone (Compound-44A 0), checkerboard, 3 days): 0.69%
- inhibition at 18.8 pM (Homo sapiens, DU-145, 72 h, Docetaxel 0.0188 nM alone (Compound-44A 0), checkerboard, 3 days): 3.89%
- inhibition at 56.5 pM (Homo sapiens, DU-145, 72 h, Docetaxel 0.0565 nM alone (Compound-44A 0), checkerboard, 3 days): 16.3%
- inhibition at 0.0001694 µM (Homo sapiens, DU-145, 72 h, Docetaxel 0.1694 nM (Table 5: 0.17) alone (Compound-44A 0), checkerboard, 3 days): 4.86%
- inhibition at 0.0005081 µM (Homo sapiens, DU-145, 72 h, Docetaxel 0.5081 nM (Table 5: 0.51) alone (Compound-44A 0), checkerboard, 3 days): 15.9%
- inhibition at 0.00152 µM (Homo sapiens, DU-145, 72 h, Docetaxel 1.52 nM alone (Compound-44A 0), checkerboard, 3 days): 55.6%
- inhibition at 0.00457 µM (Homo sapiens, DU-145, 72 h, Docetaxel 4.57 nM alone (Compound-44A 0), checkerboard, 3 days): 97.5%
- inhibition at 0.01372 µM (Homo sapiens, DU-145, 72 h, Docetaxel 13.72 nM alone (Compound-44A 0), checkerboard, 3 days): 116%
- inhibition at 0.04115 µM (Homo sapiens, DU-145, 72 h, Docetaxel 41.15 nM alone (Compound-44A 0), checkerboard, 3 days): 122%
- inhibition at 0.12346 µM (Homo sapiens, DU-145, 72 h, Docetaxel 123.46 nM alone (Compound-44A 0), checkerboard, 3 days): 125%
- inhibition at 0.37037 µM (Homo sapiens, DU-145, 72 h, Docetaxel 370.37 nM alone (Compound-44A 0), checkerboard, 3 days): 125%
- inhibition at 1.11111 µM (Homo sapiens, DU-145, 72 h, Docetaxel 1111.11 nM alone (Compound-44A 0), checkerboard, 3 days): 124%
- inhibition at 3.33333 µM (Homo sapiens, DU-145, 72 h, Docetaxel 3333.33 nM alone (Compound-44A 0), checkerboard, 3 days): 123%
- inhibition at 10 µM (Homo sapiens, DU-145, 72 h, Docetaxel 10000.00 nM alone (Compound-44A 0), checkerboard, 3 days): 118%
- inhibition at 6.3 pM (Homo sapiens, DU-145, 72 h, Docetaxel […] alone (Compound-44A 0), checkerboard, 3 days): 0%
- inhibition at 0.0005081 µM (Homo sapiens, DU-145, Docetaxel 0.5081 nM, Day-3, replicate columns): 14%
- inhibition at 0.0015242 µM (Homo sapiens, DU-145, Docetaxel 1.5242 nM, Day-3, replicate columns): 49.8%
- inhibition at 0.0045725 µM (Homo sapiens, DU-145, Docetaxel 4.5725 nM, Day-3, replicate columns): 94.6%
- inhibition at 0.0137174 µM (Homo sapiens, DU-145, Docetaxel 13.7174 nM, Day-3, replicate columns): 115%
- inhibition at 0.0411523 µM (Homo sapiens, DU-145, Docetaxel 41.1523 nM, Day-3, replicate columns): 123%
- inhibition at 0.123457 µM (Homo sapiens, DU-145, Docetaxel 123.4568 nM, Day-3, replicate columns): 126%
- inhibition at 0.37037 µM (Homo sapiens, DU-145, Docetaxel 370.3704 nM, Day-3, replicate columns): 126%
- inhibition at 1.11111 µM (Homo sapiens, DU-145, Docetaxel 1111.1111 nM, Day-3, replicate columns): 125%
- inhibition at 3.33333 µM (Homo sapiens, DU-145, Docetaxel 3333.3333 nM, Day-3, replicate columns): 124%
- inhibition at 10 µM (Homo sapiens, DU-145, Docetaxel 10000.00 nM, Day-3, replicate columns): 119%
- inhibition of proliferation in DU145 cells: dose dependent inhibition of proliferation

Structure (SMILES): CC(C)[C@H](C(=O)Nc1cc(C2CC2)[nH]n1)c1cccc(-c2ccc(NC(=O)/C=C/CN3CCOCC3)nc2)c1 (single isomer, unassigned) [Compound-44A]
- % inhibition in proliferation (Compound-44A 0.00209 nM, Day-3, replicate columns): 0.7% and −2.6% and 2.1%
- % inhibition in proliferation (Compound-44A 0.00627 nM, Day-3, replicate columns): −1.3% and 3.7% and −0.3%
- % inhibition in proliferation (Compound-44A 0.01882 nM, Day-3, replicate columns): −4.7% and 2.1% and −5.1%
- % inhibition in proliferation (Compound-44A 0.0565 nM, Day-3, replicate columns): −1.2% and 8.1% and 1.7%
- % inhibition in proliferation (Compound-44A 0.1694 nM, Day-3, replicate columns): −3.1% and 4.7% and −5.4%
- % inhibition in proliferation (Compound-44A 0.5081 nM, Day-3, replicate columns): 8.2% and 0.7% and 3.1%
- % inhibition in proliferation (Compound-44A 1.5242 nM, Day-3, replicate columns): 1.6% and −1.5% and 5.6%
- % inhibition in proliferation (Compound-44A 4.5725 nM, Day-3, replicate columns): 5.9% and 3.4%
- % inhibition in proliferation (Compound-44A 13.7174 nM, Day-3, replicate columns): 13.0% and 12.9%
- % inhibition in proliferation (Compound-44A 41.1523 nM, Day-3, replicate columns): 30.9% and 25.2%
- % inhibition in proliferation (Compound-44A 123.4568 nM, Day-3, replicate columns): 56.2% and 55.9%
- % inhibition in proliferation (Compound-44A 370.3704 nM, Day-3, replicate columns): 77.9% and 80.7%
- % inhibition in proliferation (Compound-44A 1111.1111 nM, Day-3, replicate columns): 110.4% and 105.8%
- % inhibition in proliferation (Compound-44A 3333.3333 nM, Day-3, replicate columns): 111.8% and 110.8%
- % inhibition in proliferation (Compound-44A 10000.00 nM, Day-3, replicate columns): 106.1% and 106.3%
- inhibition at 0.0005 µM (Homo sapiens, DU-145, 72 h, Compound-44A 0.5 nM alone (docetaxel 0), checkerboard, 3 days): 3.98%
- inhibition at 0.0045 µM (Homo sapiens, DU-145, 72 h, Compound-44A 4.5 nM alone (docetaxel 0), checkerboard, 3 days): 4.81%
- inhibition at 0.0137 µM (Homo sapiens, DU-145, 72 h, Compound-44A 13.7 nM alone (docetaxel 0), checkerboard, 3 days): 14.6%
- inhibition at 0.0411 µM (Homo sapiens, DU-145, 72 h, Compound-44A 41.1 nM alone (docetaxel 0), checkerboard, 3 days): 29.1%
- inhibition at 0.1234 µM (Homo sapiens, DU-145, 72 h, Compound-44A 123.4 nM alone (docetaxel 0), checkerboard, 3 days): 55.7%
- inhibition at 0.3703 µM (Homo sapiens, DU-145, 72 h, Compound-44A 370.3 nM alone (docetaxel 0), checkerboard, 3 days): 77.6%
- inhibition at 0.0045725 µM (Homo sapiens, DU-145, Compound-44A 4.5725 nM, Day-3, replicate columns): 5.1%
- inhibition at 0.0137174 µM (Homo sapiens, DU-145, Compound-44A 13.7174 nM, Day-3, replicate columns): 18%
- inhibition at 0.0411523 µM (Homo sapiens, DU-145, Compound-44A 41.1523 nM, Day-3, replicate columns): 31.2%
- inhibition at 0.123457 µM (Homo sapiens, DU-145, Compound-44A 123.4568 nM, Day-3, replicate columns): 55%
- inhibition at 0.37037 µM (Homo sapiens, DU-145, Compound-44A 370.3704 nM, Day-3, replicate columns): 74.1%
- inhibition at 1.11111 µM (Homo sapiens, DU-145, Compound-44A 1111.1111 nM, Day-3, replicate columns): 109%
- inhibition at 3.33333 µM (Homo sapiens, DU-145, Compound-44A 3333.3333 nM, Day-3, replicate columns): 112%
- inhibition at 10 µM (Homo sapiens, DU-145, Compound-44A 10000.00 nM, Day-3, replicate columns): 107%
- inhibition of proliferation in DU145 cells: dose dependent inhibition of proliferation
